Measured values from PMC12858467, “In vitro toxicokinetics and metabolic profiling of methoxycathinones and methylthiocathinones using human liver systems and hyphenated mass spectrometry” (Archives of Toxicology, 2025).

Key:
Format in all cases: in vitro ADME
Settings in all cases: 30 min, 37 °C
CYP1A2 = molecular target: T1, CYP1A2 (Homo sapiens, UniProt P05177); assay: Monooxygenases activity screening, CYP1A2; design: key: +, detected; -, not detected
T1 construct: purchased Discovery Life Sciences (Huntsville, LA, USA); host or cells: baculovirus-infected insect cells (microsomes, Supersomes)
T1 sequence (P05177 1-516): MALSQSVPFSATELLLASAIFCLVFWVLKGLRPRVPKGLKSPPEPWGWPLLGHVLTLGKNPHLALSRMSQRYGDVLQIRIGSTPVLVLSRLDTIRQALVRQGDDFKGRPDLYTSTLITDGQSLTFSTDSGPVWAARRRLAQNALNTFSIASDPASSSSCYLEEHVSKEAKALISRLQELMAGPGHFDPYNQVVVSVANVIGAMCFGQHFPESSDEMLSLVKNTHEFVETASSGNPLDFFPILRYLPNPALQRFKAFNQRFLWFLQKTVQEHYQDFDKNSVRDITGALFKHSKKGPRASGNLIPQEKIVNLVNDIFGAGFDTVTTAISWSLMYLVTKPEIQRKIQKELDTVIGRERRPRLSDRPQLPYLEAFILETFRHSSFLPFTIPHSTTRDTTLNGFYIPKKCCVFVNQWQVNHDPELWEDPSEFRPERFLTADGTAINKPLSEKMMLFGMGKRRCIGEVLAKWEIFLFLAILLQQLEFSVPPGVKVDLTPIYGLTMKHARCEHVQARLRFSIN
Protocol: (§1) For incubations with CYP2A6 or CYP2C9, phosphate buffer was replaced with 90 mM Tris buffer, according to the manufacturer’s guideline. […] All incubations were done in duplicate and concentrations were fixed. Verapamil (25 µM) was incubated as a positive control.

CYP3A5 = molecular target: T2, CYP3A5 (Homo sapiens, UniProt P20815); assay: Monooxygenases activity screening, CYP3A5; design: key: +, detected; -, not detected
T2 construct: purchased Discovery Life Sciences (Huntsville, LA, USA); host or cells: baculovirus-infected insect cells (microsomes, Supersomes)
Protocol: as §1

CYP2A6 = molecular target: T3, CYP2A6 (Homo sapiens, UniProt P11509); assay: Monooxygenases activity screening, CYP2A6; design: key: +, detected; -, not detected
T3 construct: purchased Discovery Life Sciences (Huntsville, LA, USA); host or cells: baculovirus-infected insect cells (microsomes, Supersomes)
T3 sequence (P11509 1-494): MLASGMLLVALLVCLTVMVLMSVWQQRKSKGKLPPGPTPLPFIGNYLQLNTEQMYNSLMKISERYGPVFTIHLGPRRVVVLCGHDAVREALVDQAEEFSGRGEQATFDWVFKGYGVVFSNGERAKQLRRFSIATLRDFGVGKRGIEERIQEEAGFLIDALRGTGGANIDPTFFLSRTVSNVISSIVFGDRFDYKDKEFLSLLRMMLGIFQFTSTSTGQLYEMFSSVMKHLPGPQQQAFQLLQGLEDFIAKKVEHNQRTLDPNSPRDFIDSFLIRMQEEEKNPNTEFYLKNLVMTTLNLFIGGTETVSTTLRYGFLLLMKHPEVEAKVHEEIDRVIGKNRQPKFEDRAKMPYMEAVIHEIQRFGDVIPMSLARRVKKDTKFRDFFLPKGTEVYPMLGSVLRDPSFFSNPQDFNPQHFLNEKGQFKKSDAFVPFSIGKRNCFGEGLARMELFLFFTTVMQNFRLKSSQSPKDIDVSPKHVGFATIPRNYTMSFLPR
Protocol: as §1

[1] = molecular target: T4, flavin-containing monooxygenase 3 (FMO3) (Homo sapiens, UniProt P31513); assay: Monooxygenases activity screening, FMO3; design: key: +, detected; -, not detected
T4 construct: purchased Discovery Life Sciences (Huntsville, LA, USA); host or cells: baculovirus-infected insect cells (microsomes, Supersomes)
T4 sequence (P31513 1-532): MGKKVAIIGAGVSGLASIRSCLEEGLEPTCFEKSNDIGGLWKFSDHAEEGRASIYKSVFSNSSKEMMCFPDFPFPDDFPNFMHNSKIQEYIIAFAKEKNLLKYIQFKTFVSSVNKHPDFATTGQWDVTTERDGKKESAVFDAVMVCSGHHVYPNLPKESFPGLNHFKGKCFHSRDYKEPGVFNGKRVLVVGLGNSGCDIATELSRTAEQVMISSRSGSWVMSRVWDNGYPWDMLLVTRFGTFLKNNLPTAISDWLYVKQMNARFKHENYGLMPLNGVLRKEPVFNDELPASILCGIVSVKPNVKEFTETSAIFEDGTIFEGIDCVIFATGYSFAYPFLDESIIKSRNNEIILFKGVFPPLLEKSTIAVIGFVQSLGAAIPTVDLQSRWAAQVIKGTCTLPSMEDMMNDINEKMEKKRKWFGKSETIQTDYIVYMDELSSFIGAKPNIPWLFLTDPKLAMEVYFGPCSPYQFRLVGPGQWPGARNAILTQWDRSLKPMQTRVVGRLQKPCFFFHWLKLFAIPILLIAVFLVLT
Protocol: as §1

CYP2E1 = molecular target: T5, CYP2E1 (Homo sapiens, UniProt P05181); assay: Monooxygenases activity screening, CYP2E1; design: key: +, detected; -, not detected
T5 construct: purchased Discovery Life Sciences (Huntsville, LA, USA); host or cells: baculovirus-infected insect cells (microsomes, Supersomes)
Protocol: as §1

CYP2C19 = molecular target: T6, CYP2C19 (Homo sapiens, UniProt P33261); assay: Monooxygenases activity screening, CYP2C19; design: key: +, detected; -, not detected
T6 construct: purchased Discovery Life Sciences (Huntsville, LA, USA); host or cells: baculovirus-infected insect cells (microsomes, Supersomes)
Protocol: as §1

CYP3A4 = molecular target: T7, CYP3A4 (Homo sapiens, UniProt P08684); assay: Monooxygenases activity screening, CYP3A4; design: key: +, detected; -, not detected
T7 construct: purchased Discovery Life Sciences (Huntsville, LA, USA); host or cells: baculovirus-infected insect cells (microsomes, Supersomes)
Protocol: as §1

CYP2C9 = molecular target: T8, CYP2C9 (Homo sapiens, UniProt P11712); assay: Monooxygenases activity screening, CYP2C9; design: key: +, detected; -, not detected
T8 construct: purchased Discovery Life Sciences (Huntsville, LA, USA); host or cells: baculovirus-infected insect cells (microsomes, Supersomes)
Protocol: as §1

CYP2B6 = molecular target: T9, CYP2B6 (Homo sapiens, UniProt P20813); assay: Monooxygenases activity screening, CYP2B6; design: key: +, detected; -, not detected
T9 construct: purchased Discovery Life Sciences (Huntsville, LA, USA); host or cells: baculovirus-infected insect cells (microsomes, Supersomes)
T9 sequence (P20813 1-491): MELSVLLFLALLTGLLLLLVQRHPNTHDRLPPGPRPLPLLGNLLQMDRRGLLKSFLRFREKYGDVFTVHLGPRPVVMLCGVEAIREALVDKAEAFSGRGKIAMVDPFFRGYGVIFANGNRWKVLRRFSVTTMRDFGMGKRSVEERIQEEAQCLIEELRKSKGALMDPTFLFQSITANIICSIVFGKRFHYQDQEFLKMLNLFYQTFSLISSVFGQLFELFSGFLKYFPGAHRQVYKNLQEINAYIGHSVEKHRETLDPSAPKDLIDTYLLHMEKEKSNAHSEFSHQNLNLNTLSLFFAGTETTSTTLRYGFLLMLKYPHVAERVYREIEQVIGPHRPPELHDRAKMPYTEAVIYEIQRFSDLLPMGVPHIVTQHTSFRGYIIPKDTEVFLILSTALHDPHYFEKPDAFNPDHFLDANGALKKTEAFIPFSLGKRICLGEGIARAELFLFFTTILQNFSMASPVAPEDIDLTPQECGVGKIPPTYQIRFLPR
Protocol: as §1

CYP2D6 = molecular target: T10, CYP2D6 (Homo sapiens, UniProt P10635); assay: Monooxygenases activity screening, CYP2D6; design: key to one-step metabolite detected in CYP2D6 incubation: +, detected; -, not detected
T10 construct: purchased Discovery Life Sciences (Huntsville, LA, USA); host or cells: baculovirus-infected insect cells (microsomes, Supersomes)
Protocol: as §1

CYP2C8 = molecular target: T11, CYP2C8 (Homo sapiens, UniProt P10632); assay: Monooxygenases activity screening, CYP2C8; design: key: +, detected; -, not detected
T11 construct: purchased Discovery Life Sciences (Huntsville, LA, USA); host or cells: baculovirus-infected insect cells (microsomes, Supersomes)
T11 sequence (P10632 1-490): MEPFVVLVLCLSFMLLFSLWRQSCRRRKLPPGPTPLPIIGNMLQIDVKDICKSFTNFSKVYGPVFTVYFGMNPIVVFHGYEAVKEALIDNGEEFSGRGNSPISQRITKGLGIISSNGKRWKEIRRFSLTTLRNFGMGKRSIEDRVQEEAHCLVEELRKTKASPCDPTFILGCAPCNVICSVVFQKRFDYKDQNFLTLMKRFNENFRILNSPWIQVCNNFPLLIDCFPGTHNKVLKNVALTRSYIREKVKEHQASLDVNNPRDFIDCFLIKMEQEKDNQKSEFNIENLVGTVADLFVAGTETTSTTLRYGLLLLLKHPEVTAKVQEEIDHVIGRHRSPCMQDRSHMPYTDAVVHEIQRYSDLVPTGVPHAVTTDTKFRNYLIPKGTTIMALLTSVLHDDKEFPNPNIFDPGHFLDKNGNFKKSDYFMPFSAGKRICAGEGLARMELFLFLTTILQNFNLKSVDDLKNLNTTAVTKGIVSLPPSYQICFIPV
Protocol: as §1

[2] = substrate 4MeS-NE-BP 25 µM, Table S3.4
[3] = substrate 4MeS-αP-BP 25 µM, Table S3.5
[4] = substrate 4MeS-αMor-PrP 25 µM, Table S3.6

T2 sequence (P20815 whole entry): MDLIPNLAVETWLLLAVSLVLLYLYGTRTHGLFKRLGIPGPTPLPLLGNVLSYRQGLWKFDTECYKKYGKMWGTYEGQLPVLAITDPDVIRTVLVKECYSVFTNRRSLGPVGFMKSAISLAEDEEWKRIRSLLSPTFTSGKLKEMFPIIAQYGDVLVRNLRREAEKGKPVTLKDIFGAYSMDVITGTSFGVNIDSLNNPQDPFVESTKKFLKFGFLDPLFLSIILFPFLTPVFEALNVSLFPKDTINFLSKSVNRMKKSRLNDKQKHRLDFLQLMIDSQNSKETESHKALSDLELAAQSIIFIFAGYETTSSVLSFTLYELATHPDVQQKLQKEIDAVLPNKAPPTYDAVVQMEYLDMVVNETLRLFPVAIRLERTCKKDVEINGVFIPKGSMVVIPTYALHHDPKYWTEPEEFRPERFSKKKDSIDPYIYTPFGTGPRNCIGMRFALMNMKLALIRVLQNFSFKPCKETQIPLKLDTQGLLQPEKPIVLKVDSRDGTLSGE
T8 sequence (P11712 whole entry): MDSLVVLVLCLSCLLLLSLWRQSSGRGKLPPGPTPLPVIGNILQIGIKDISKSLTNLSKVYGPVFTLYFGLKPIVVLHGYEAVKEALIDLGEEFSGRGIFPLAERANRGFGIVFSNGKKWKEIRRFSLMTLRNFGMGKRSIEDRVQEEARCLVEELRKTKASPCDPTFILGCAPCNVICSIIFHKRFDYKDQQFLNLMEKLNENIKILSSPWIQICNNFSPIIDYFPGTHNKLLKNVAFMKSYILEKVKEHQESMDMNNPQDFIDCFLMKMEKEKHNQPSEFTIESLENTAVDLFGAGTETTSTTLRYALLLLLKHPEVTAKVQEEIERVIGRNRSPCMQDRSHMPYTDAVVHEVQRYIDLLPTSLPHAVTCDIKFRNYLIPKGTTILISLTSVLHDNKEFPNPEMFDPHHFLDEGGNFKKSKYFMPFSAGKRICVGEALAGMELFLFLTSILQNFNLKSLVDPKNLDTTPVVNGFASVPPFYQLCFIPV
T5 sequence (P05181 whole entry): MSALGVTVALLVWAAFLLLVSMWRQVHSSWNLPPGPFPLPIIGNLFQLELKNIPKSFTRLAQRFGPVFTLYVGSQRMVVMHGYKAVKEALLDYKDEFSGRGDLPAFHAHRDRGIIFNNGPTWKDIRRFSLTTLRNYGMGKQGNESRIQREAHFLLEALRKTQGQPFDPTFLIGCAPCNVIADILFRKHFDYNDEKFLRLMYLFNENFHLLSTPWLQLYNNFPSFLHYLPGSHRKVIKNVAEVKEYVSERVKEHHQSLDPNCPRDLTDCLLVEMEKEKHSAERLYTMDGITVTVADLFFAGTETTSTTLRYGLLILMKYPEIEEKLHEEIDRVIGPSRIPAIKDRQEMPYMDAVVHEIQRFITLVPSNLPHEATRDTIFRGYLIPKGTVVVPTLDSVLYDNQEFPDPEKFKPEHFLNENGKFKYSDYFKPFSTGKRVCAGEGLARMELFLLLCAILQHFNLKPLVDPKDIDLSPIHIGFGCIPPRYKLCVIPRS
T10 sequence (P10635 whole entry): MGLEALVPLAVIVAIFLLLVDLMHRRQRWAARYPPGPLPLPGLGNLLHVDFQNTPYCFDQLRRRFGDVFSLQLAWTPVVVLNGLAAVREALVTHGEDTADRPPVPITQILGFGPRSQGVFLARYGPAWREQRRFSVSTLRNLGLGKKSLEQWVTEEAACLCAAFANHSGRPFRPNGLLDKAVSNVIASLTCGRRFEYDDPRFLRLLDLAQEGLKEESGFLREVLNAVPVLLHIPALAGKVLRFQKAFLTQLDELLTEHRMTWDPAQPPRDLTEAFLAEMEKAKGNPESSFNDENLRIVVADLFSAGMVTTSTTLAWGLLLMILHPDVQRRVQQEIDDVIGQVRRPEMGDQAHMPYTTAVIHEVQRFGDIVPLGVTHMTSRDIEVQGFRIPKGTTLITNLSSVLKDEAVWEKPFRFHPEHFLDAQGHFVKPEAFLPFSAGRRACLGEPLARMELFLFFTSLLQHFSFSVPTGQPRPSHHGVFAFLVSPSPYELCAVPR
T6 sequence (P33261 whole entry): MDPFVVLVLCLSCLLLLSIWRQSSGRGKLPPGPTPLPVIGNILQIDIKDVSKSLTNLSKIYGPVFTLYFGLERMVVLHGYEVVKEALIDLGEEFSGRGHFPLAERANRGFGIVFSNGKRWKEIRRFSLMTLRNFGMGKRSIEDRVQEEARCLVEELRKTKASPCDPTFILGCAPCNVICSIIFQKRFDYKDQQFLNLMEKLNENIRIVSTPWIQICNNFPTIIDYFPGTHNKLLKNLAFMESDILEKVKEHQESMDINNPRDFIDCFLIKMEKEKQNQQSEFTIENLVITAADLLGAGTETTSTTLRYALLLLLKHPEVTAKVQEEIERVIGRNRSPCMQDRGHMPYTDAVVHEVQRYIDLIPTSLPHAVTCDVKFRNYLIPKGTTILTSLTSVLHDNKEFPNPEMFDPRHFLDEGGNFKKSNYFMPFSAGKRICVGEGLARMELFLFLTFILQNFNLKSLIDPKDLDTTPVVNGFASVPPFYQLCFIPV
T7 sequence (P08684 whole entry): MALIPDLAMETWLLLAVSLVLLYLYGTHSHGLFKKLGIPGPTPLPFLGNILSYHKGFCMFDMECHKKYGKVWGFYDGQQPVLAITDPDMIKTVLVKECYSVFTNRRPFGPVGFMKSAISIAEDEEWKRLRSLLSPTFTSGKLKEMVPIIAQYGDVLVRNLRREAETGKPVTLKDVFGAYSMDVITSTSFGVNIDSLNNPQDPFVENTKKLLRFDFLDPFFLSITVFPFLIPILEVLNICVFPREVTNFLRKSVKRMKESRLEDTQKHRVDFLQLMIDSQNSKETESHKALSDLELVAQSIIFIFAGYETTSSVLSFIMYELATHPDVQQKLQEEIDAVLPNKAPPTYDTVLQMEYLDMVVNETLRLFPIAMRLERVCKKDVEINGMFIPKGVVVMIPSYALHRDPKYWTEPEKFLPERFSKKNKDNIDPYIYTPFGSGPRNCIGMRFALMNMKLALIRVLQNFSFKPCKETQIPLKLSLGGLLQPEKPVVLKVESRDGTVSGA

SMILES	one-step metabolite detected in CYP1A2 incubation (CYP1A2; [4])	one-step metabolite detected in CYP3A5 incubation (CYP3A5; [4])	one-step metabolite detected in CYP2A6 incubation (CYP2A6; [4])	one-step metabolite detected in FMO3 incubation [1, 4]	one-step metabolite detected in CYP2E1 incubation (CYP2E1; [4])	one-step metabolite detected in CYP2C19 incubation (CYP2C19; [4])	one-step metabolite detected in CYP3A4 incubation (CYP3A4; [4])	one-step metabolite detected in CYP2C9 incubation (CYP2C9; [4])	one-step metabolite detected in CYP2B6 incubation (CYP2B6; [4])	one-step metabolite detected in CYP2D6 incubation (CYP2D6; [4])	one-step metabolite detected in CYP2C8 incubation (CYP2C8; [4])	also measured
CCC(N)C(=O)c1ccc(SC)cc1 (centres unmarked) [MT1.3]												one-step metabolite detected in CYP1A2 incubation (CYP1A2; [2]): +; one-step metabolite detected in CYP3A5 incubation (CYP3A5; [2]): +; one-step metabolite detected in CYP2A6 incubation (CYP2A6; [2]): -; one-step metabolite detected in FMO3 incubation [1, 2]: -; one-step metabolite detected in CYP2E1 incubation (CYP2E1; [2]): -; one-step metabolite detected in CYP2C19 incubation (CYP2C19; [2]): +; one-step metabolite detected in CYP3A4 incubation (CYP3A4; [2]): +; one-step metabolite detected in CYP2C9 incubation (CYP2C9; [2]): -; one-step metabolite detected in CYP2B6 incubation (CYP2B6; [2]): +; one-step metabolite detected in CYP2D6 incubation (CYP2D6; [2]): +; one-step metabolite detected in CYP2C8 incubation (CYP2C8; [2]): +
CCC(C(=O)c1ccc(S)cc1)N1CCCC1 (centres unmarked) [MT2.1]												one-step metabolite detected in CYP1A2 incubation (CYP1A2; [3]): -; one-step metabolite detected in CYP3A5 incubation (CYP3A5; [3]): -; one-step metabolite detected in CYP2A6 incubation (CYP2A6; [3]): -; one-step metabolite detected in FMO3 incubation [1, 3]: -; one-step metabolite detected in CYP2E1 incubation (CYP2E1; [3]): -; one-step metabolite detected in CYP2C19 incubation (CYP2C19; [3]): -; one-step metabolite detected in CYP3A4 incubation (CYP3A4; [3]): -; one-step metabolite detected in CYP2C9 incubation (CYP2C9; [3]): -; one-step metabolite detected in CYP2B6 incubation (CYP2B6; [3]): -; one-step metabolite detected in CYP2D6 incubation (CYP2D6; [3]): +; one-step metabolite detected in CYP2C8 incubation (CYP2C8; [3]): -
CC(C(=O)c1ccc(S)cc1)N1CCOCC1 (centres unmarked) [MT3.1]	+	+	-	-	-	+	+	-	+	+	+	
CSc1ccc(C(=O)C(C)[N+]2([O-])CCOCC2)cc1 (centres unmarked) [MT3.3]	-	-	+	+	-	-	-	-	-	-	-	
